Source: the supplement of paper PMC10307832

How the values were obtained:
Assay in all cases: relative viability (nuclei count vs DMSO), 5 days (fraction); higher = more cells survive
Pazopanib + Trametinib = compound: Cc1ccc(Nc2nccc(N(C)c3ccc4c(C)n(C)nc4c3)n2)cc1S(N)(=O)=O [Pazopanib] + CC(=O)Nc1cccc(-n2c(=O)n(C3CC3)c(=O)c3c(Nc4ccc(I)cc4F)n(C)c(=O)c(C)c32)c1 [Trametinib] (partner 0.02 µM)
In short: (§1)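 Each reported value is a median over duplicate plates. It expresses relative viability: treated-well nuclei count divided by vehicle-well nuclei count. Lung cancer cell lines in 1536-well plates were dosed by pin tool a day after seeding, alone with one drug or with a fixed anchor-drug dose plus five library-drug doses (not always all listed) in √10 steps, and nuclei were counted after 5 days.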

Ponatinib + Foretinib = compound: Cc1ccc(C(=O)Nc2ccc(CN3CCN(C)CC3)c(C(F)(F)F)c2)cc1C#Cc1cnc2cccnn12 [Ponatinib] + COc1cc2c(Oc3ccc(NC(=O)C4(C(=O)Nc5ccc(F)cc5)CC4)cc3F)ccnc2cc1OCCCN1CCOCC1 [Foretinib] (partner 0.25 µM)
In short: as §1

Ponatinib + Vorinostat = compound: Cc1ccc(C(=O)Nc2ccc(CN3CCN(C)CC3)c(C(F)(F)F)c2)cc1C#Cc1cnc2cccnn12 [Ponatinib] + O=C(CCCCCCC(=O)Nc1ccccc1)NO [Vorinostat] (partner 1 µM)
In short: as §1

Pazopanib + Navitoclax = compound: Cc1ccc(Nc2nccc(N(C)c3ccc4c(C)n(C)nc4c3)n2)cc1S(N)(=O)=O [Pazopanib] + CC1(C)CCC(c2ccc(Cl)cc2)=C(CN2CCN(c3ccc(C(=O)NS(=O)(=O)c4ccc(N[C@H](CCN5CCOCC5)CSc5ccccc5)c(S(=O)(=O)C(F)(F)F)c4)cc3)CC2)C1 [Navitoclax] (partner 0.5 µM)
In short: as §1

SW 1573
relative viability (Pazopanib + Trametinib; first compound 0.01 µM): 0.604 | relative viability (Pazopanib + Trametinib; first compound 0.03162 µM): 0.671 | relative viability (Pazopanib + Trametinib; first compound 0.1 µM): 0.604 | relative viability (Pazopanib + Trametinib; first compound 0.3162 µM): 0.649 | relative viability (Pazopanib + Trametinib; first compound 1 µM): 0.494 | relative viability (Ponatinib + Foretinib; first compound 0.002 µM): 0.75 | relative viability (Ponatinib + Foretinib; first compound 0.006325 µM): 0.767 | relative viability (Ponatinib + Foretinib; first compound 0.06325 µM): 0.922 | relative viability (Ponatinib + Foretinib; first compound 0.2 µM): 0.864 | relative viability (Ponatinib + Vorinostat; first compound 0.002 µM): 0.564 | relative viability (Ponatinib + Vorinostat; first compound 0.006325 µM): 0.737 | relative viability (Ponatinib + Vorinostat; first compound 0.06325 µM): 0.835 | relative viability (Ponatinib + Vorinostat; first compound 0.2 µM): 0.575 | relative viability (Pazopanib + Navitoclax; first compound 0.01 µM): 1.16 | relative viability (Pazopanib + Navitoclax; first compound 0.03162 µM): 1.06 | relative viability (Pazopanib + Navitoclax; first compound 0.1 µM): 1.02 | relative viability (Pazopanib + Navitoclax; first compound 0.3162 µM): 1.2 | relative viability (Pazopanib + Navitoclax; first compound 1 µM): 1.28
